What all share (experiment): relative viability (nuclei count vs DMSO), 5 days (fraction); higher = more cells survive
Compound in the test “Axitinib + Navitoclax”: CNC(=O)c1ccccc1Sc1ccc2c(/C=C/c3ccccn3)n[nH]c2c1 [Axitinib] + CC1(C)CCC(c2ccc(Cl)cc2)=C(CN2CCN(c3ccc(C(=O)NS(=O)(=O)c4ccc(N[C@H](CCN5CCOCC5)CSc5ccccc5)c(S(=O)(=O)C(F)(F)F)c4)cc3)CC2)C1 [Navitoclax] (partner 0.5 µM)
The method in brief: (§1)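 Lung cancer cell lines were pin-tool dosed in 1536-well plates on the day after seeding, with either a lone drug or a fixed anchor-drug dose plus five library-drug doses (not always all listed) in √10 steps. Nuclei were counted on 4× images after 5 days. Relative viability is the ratio of treated-well to vehicle-well nuclei counts, with each value a median of duplicate plates.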

Compound in test [1]: CC1=CC=C(C=C1)C(=O)CN2C3=C(CCCC3)SC2=N [Pifithrin_alpha] + Cc1nc(Nc2ncc(C(=O)Nc3c(C)cccc3Cl)s2)cc(N2CCN(CCO)CC2)n1 [Dasatinib] (partner 0.075 µM)
The method in brief: as §1

Compound in the test “Axitinib + Palbociclib”: CNC(=O)c1ccccc1Sc1ccc2c(/C=C/c3ccccn3)n[nH]c2c1 [Axitinib] + CC(=O)c1c(C)c2cnc(Nc3ccc(N4CCNCC4)cn3)nc2n(C2CCCC2)c1=O [Palbociclib] (partner 0.5 µM)
The method in brief:
as §1

Compound in the test “Axitinib + Pemetrexed”: CNC(=O)c1ccccc1Sc1ccc2c(/C=C/c3ccccn3)n[nH]c2c1 [Axitinib] + Nc1nc2[nH]cc(CCc3ccc(C(=O)N[C@@H](CCC(=O)O)C(=O)O)cc3)c2c(=O)[nH]1 [Pemetrexed] (partner 0.2 µM)
In a few lines:
as §1

In the case of 201T, the relative viability with Axitinib + Navitoclax (first compound 0.005 µM) was 1.21; in the test with Axitinib + Navitoclax (first compound 0.01581 µM), 1.18; in the test with Axitinib + Navitoclax (first compound 0.05 µM) it was 1.18; with Axitinib + Navitoclax (first compound 0.1581 µM) it was 1.27; with Axitinib + Navitoclax (first compound 0.5 µM), 1.23; in test [1] (first compound 1 µM), 0.47. For the same cell line, the relative viability was 0.337 in test [1] (first compound 3.162 µM); 0.431 in test [1] (first compound 10 µM); 0.392 in test [1] (first compound 31.62 µM); 0.399 in test [1] (first compound 100 µM); 0.376 with Axitinib + Palbociclib (first compound 0.005 µM); 0.361 in the test with Axitinib + Palbociclib (first compound 0.01581 µM). The relative viability in the test with Axitinib + Palbociclib (first compound 0.05 µM) was determined as 0.335; with Axitinib + Palbociclib (first compound 0.1581 µM), 0.351; with Axitinib + Palbociclib (first compound 0.5 µM) it was 0.343; in the test with Axitinib + Pemetrexed (first compound 0.005 µM), 0.379; in the test with Axitinib + Pemetrexed (first compound 0.01581 µM), 0.3; with Axitinib + Pemetrexed (first compound 0.05 µM) it was 0.294. Also, the relative viability was found to be 0.302 with Axitinib + Pemetrexed (first compound 0.1581 µM) and 0.332 with Axitinib + Pemetrexed (first compound 0.5 µM).

Turning to A549, the relative viability with Axitinib + Navitoclax (first compound 0.005 µM) worked out at 1.19; with Axitinib + Navitoclax (first compound 0.01581 µM), 1.24; in the test with Axitinib + Navitoclax (first compound 0.05 µM), 1.25; in the test with Axitinib + Navitoclax (first compound 0.1581 µM) it was 1.13; with Axitinib + Navitoclax (first compound 0.5 µM), 1.18.

Consider A-427, for which the relative viability with Axitinib + Navitoclax (first compound 0.005 µM) came to 0.999; with Axitinib + Navitoclax (first compound 0.01581 µM) it was 1.05; with Axitinib + Navitoclax (first compound 0.05 µM) it was 0.925; in the test with Axitinib + Navitoclax (first compound 0.1581 µM), 0.958; with Axitinib + Navitoclax (first compound 0.5 µM) it was 1.04; in test [1] (first compound 1 µM) it was 0.824. The relative viability was determined as 0.635 in test [1] (first compound 3.162 µM); 0.599 in test [1] (first compound 10 µM); 0.513 in test [1] (first compound 31.62 µM); 0.702 in test [1] (first compound 100 µM); 0.491 with Axitinib + Palbociclib (first compound 0.005 µM); 0.511 with Axitinib + Palbociclib (first compound 0.01581 µM). In addition, the relative viability was 0.564 with Axitinib + Palbociclib (first compound 0.05 µM); 0.567 with Axitinib + Palbociclib (first compound 0.1581 µM); 0.543 with Axitinib + Palbociclib (first compound 0.5 µM); 1.11 with Axitinib + Pemetrexed (first compound 0.005 µM); 1.1 with Axitinib + Pemetrexed (first compound 0.01581 µM); 1.01 with Axitinib + Pemetrexed (first compound 0.05 µM). For the same cell line, the relative viability with Axitinib + Pemetrexed (first compound 0.1581 µM) stood at 0.954; with Axitinib + Pemetrexed (first compound 0.5 µM), 1.14.

As to ABC-1, the relative viability in test [1] (first compound 1 µM) came to 0.413; in test [1] (first compound 3.162 µM), 0.439; in test [1] (first compound 10 µM) it was 0.435; in test [1] (first compound 31.62 µM), 0.398; in test [1] (first compound 100 µM) it was 0.453; in the test with Axitinib + Palbociclib (first compound 0.005 µM) it was 0.756. In addition, the relative viability in the test with Axitinib + Palbociclib (first compound 0.05 µM) was 0.632; in the test with Axitinib + Palbociclib (first compound 0.1581 µM) it was 0.626; with Axitinib + Palbociclib (first compound 0.5 µM), 0.854.

Consider BEN, for which the relative viability with Axitinib + Navitoclax (first compound 0.005 µM) stood at 0.074; with Axitinib + Navitoclax (first compound 0.01581 µM), 0.0723; with Axitinib + Navitoclax (first compound 0.05 µM), 0.0728; with Axitinib + Navitoclax (first compound 0.1581 µM) it was 0.0721; with Axitinib + Navitoclax (first compound 0.5 µM), 0.0571; in test [1] (first compound 1 µM), 0.217. For the same cell line, the relative viability in test [1] (first compound 3.162 µM) came out at 0.36; in test [1] (first compound 10 µM) it was 0.373; in test [1] (first compound 31.62 µM), 0.343; in test [1] (first compound 100 µM), 0.299; with Axitinib + Palbociclib (first compound 0.005 µM) it was 0.474; in the test with Axitinib + Palbociclib (first compound 0.01581 µM), 0.433. Also, the relative viability was determined as 0.459 with Axitinib + Palbociclib (first compound 0.05 µM); 0.518 in the test with Axitinib + Palbociclib (first compound 0.1581 µM); 0.515 in the test with Axitinib + Palbociclib (first compound 0.5 µM); 0.73 with Axitinib + Pemetrexed (first compound 0.005 µM); 0.858 in the test with Axitinib + Pemetrexed (first compound 0.01581 µM); 0.801 in the test with Axitinib + Pemetrexed (first compound 0.05 µM). Also, the relative viability in the test with Axitinib + Pemetrexed (first compound 0.1581 µM) was 0.859; with Axitinib + Pemetrexed (first compound 0.5 µM), 0.751.
